Source: patent US20250205256A1 (GH RESEARCH IRELAND LIMITED, priority 2022, published 2025)

Key:
[1] = tested on: patients with treatment-resistant major depressive disorder (TRD); experiment: Phase 1/2 clinical trial of inhaled 5-MeO-DMT in TRD: safety and tolerability
Protocol: This trial was designed in two parts. Part A was an open-label, single-arm, single-dose Phase 1 trial with two dose levels (12 mg (n=4) and 18 mg (n=4)). […] The primary endpoint of Part B was to assess the effects on the severity of depression, as assessed by the proportion of patients in remission on day seven after dosing, defined as a MADRS total score of less than or equal to 10.

[2] = tested on: patients with treatment-resistant major depressive disorder (TRD); experiment: Phase 1/2 clinical trial of inhaled 5-MeO-DMT in TRD: MADRS; type: in vivo, human; settings: for mean MADRS change from baseline at day seven / mean MADRS change from baseline at day seven, percent: n=4
Text: Patients were assigned to different groups.
This trial was designed in two parts.

[3] = tested on: Escherichia coli strain WP2 uvrA pKM101; experiment: Bacterial mutation test, Escherichia coli; type: cell-based; settings: up to 5000 μg/plate, absence and presence of rat liver S-9
Protocol: (§1) These conditions included treatments at concentrations up to 5000 μg/plate (the maximum recommended concentration according to current regulatory guidelines), in the absence and in the presence of a rat liver metabolic activation system (S-9).

[4] = tested on: patient with postpartum depression (PPD); experiment: Clinical trial of inhaled 5-MeO-DMT (IDR, 6 mg then 12 mg) in postpartum depression: MADRS; type: in vivo, human; settings: for Total MADRS score: baseline 29
Text: The patient completed all planned visit days.

[5] = Pharmacokinetics after single inhaled dose of 5-MeO-DMT (LC-MS/MS); type: in vivo, human
Protocol: Blood samples were obtained at 1; 2; 4; 7; 10; 15; 20; 30; 45 min and 1; 1.5; 2; 3; 4 hours after administration.
PK parameters were generated by algebraic analysis of the concentration versus time plots for each individual. The analysis was carried out using the software Phoenix WinNonlin 6.3.

[6] = tested on: Salmonella typhimurium strains TA98, TA100, TA1535 and TA1537; experiment: Bacterial mutation test, Salmonella typhimurium; type: cell-based; settings: up to 5000 μg/plate, absence and presence of rat liver S-9
Protocol: as §1

[7] = 12 mg n=4 sum, 2 h after dose vs baseline
[8] = 12 mg n=4 sum, 2 h after dose, baseline 16
[9] = 12 mg n=4 sum, Day 1, baseline 16
[10] = 12 mg n=4 sum, Day 1 vs baseline
[11] = 12 mg n=4 sum, Day 7, baseline 16
[12] = 12 mg n=4 sum, Day 7 vs baseline
[13] = IDR n=8 sum, 2 h after last dose vs baseline

Structure (SMILES): COc1ccc2[nH]cc(CCN(C)C)c2c1 [5-MeO-DMT]
- changes in safety laboratory analyses, vital signs, psychiatric safety assessments or measures of cognitive function ([1]; Part A and Part B): No clinically significant changes
- severity and outcome of ADRs ([1]; Part A, 12 mg and 18 mg groups): mild and resolved spontaneously
- patients experiencing at least one ADR ([1]; Part A, 12 mg single dose, n=4): 3 of 4
- patients experiencing at least one ADR ([1]; Part A, 18 mg single dose, n=4): 3 of 4
- SAEs ([1]; Part B, IDR): No SAEs were reported
- outcome of ADRs ([1]; Part B, IDR): All ADRs resolved spontaneously
- patients experiencing at least one ADR ([1]; Part B, IDR, 7 of 8 patients): 87.5%
- MADRS Concentration Difficulties improvement [2, 7]: 9
- MADRS Inability to Feel improvement [2, 7]: 7
- MADRS Inner Tension improvement [2, 7]: 11
- MADRS Lassitude improvement [2, 7]: 6
- MADRS Pessimistic Thoughts improvement [2, 7]: 8
- MADRS Pessimistic Thoughts percentage improvement [2, 7]: 50.00%
- MADRS Suicidal Thoughts improvement [2, 7]: 5
- MADRS Suicidal Thoughts score ([2]; 12 mg n=4 sum, 2 h after dose, baseline 8): 3
- MADRS Inner Tension score ([2]; 12 mg n=4 sum, 2 h after dose, baseline 13): 2
- MADRS Concentration Difficulties score [2, 8]: 7
- MADRS Inability to Feel score [2, 8]: 9
- MADRS Lassitude score [2, 8]: 10
- MADRS Pessimistic Thoughts score [2, 8]: 8
- MADRS Suicidal Thoughts score ([2]; 12 mg n=4 sum, Day 1, baseline 8): 5
- MADRS Reduced Sleep score ([2]; 12 mg n=4 sum, Day 1, baseline 12): 10
- MADRS Inner Tension score ([2]; 12 mg n=4 sum, Day 1, baseline 13): 3
- MADRS Concentration Difficulties score [2, 9]: 2
- MADRS Inability to Feel score [2, 9]: 1
- MADRS Pessimistic Thoughts score [2, 9]: 7
- MADRS Concentration Difficulties improvement [2, 10]: 14
- MADRS Inability to Feel improvement [2, 10]: 15
- MADRS Inner Tension improvement [2, 10]: 10
- MADRS Lassitude improvement [2, 10]: 16
- MADRS Pessimistic Thoughts improvement [2, 10]: 9
- MADRS Reduced Sleep improvement [2, 10]: 2
- MADRS Suicidal Thoughts improvement [2, 10]: 3
- MADRS Suicidal Thoughts score ([2]; 12 mg n=4 sum, Day 7, baseline 8): 7
- MADRS Reduced Sleep score ([2]; 12 mg n=4 sum, Day 7, baseline 12): 6
- MADRS Inner Tension score ([2]; 12 mg n=4 sum, Day 7, baseline 13): 5
- MADRS Concentration Difficulties score [2, 11]: 3
- MADRS Inability to Feel score [2, 11]: 1
- MADRS Lassitude score [2, 11]: 3
- MADRS Pessimistic Thoughts score [2, 11]: 8
- MADRS Concentration Difficulties improvement [2, 12]: 13
- MADRS Inability to Feel improvement [2, 12]: 15
- MADRS Inner Tension improvement [2, 12]: 8
- MADRS Lassitude improvement [2, 12]: 13
- MADRS Pessimistic Thoughts improvement [2, 12]: 8
- MADRS Pessimistic Thoughts percentage improvement [2, 12]: 50.00%
- MADRS Reduced Sleep improvement [2, 12]: 6
- MADRS Reduced Sleep percentage improvement [2, 12]: 50.00%
- MADRS Suicidal Thoughts improvement [2, 12]: 1
- MADRS Concentration Difficulties improvement [2, 13]: 19
- MADRS Inability to Feel improvement [2, 13]: 24
- MADRS Inner Tension improvement [2, 13]: 15
- MADRS Lassitude improvement [2, 13]: 17
- MADRS Pessimistic Thoughts improvement [2, 13]: 21
- MADRS Pessimistic Thoughts percentage improvement [2, 13]: 75.00%
- MADRS Suicidal Thoughts improvement [2, 13]: 8
- MADRS Suicidal Thoughts score ([2]; IDR n=8 sum, 2 h after last dose, baseline 11): 3
- MADRS Inner Tension score ([2]; IDR n=8 sum, 2 h after last dose, baseline 26): 11
- MADRS Lassitude score ([2]; IDR n=8 sum, 2 h after last dose, baseline 27): 10
- MADRS Pessimistic Thoughts score ([2]; IDR n=8 sum, 2 h after last dose, baseline 28): 7
- MADRS Concentration Difficulties score ([2]; IDR n=8 sum, 2 h after last dose, baseline 30): 11
- MADRS Inability to Feel score ([2]; IDR n=8 sum, 2 h after last dose, baseline 36): 12
- MADRS Suicidal Thoughts score ([2]; IDR n=8 sum, Day 1, baseline 11): 1
- MADRS Reduced Sleep score ([2]; IDR n=8 sum, Day 1, baseline 25): 12
- MADRS Inner Tension score ([2]; IDR n=8 sum, Day 1, baseline 26): 6
- MADRS Lassitude score ([2]; IDR n=8 sum, Day 1, baseline 27): 5
- MADRS Pessimistic Thoughts score ([2]; IDR n=8 sum, Day 1, baseline 28): 4
- MADRS Concentration Difficulties score ([2]; IDR n=8 sum, Day 1, baseline 30): 1
- MADRS Inability to Feel score ([2]; IDR n=8 sum, Day 1, baseline 36): 2
- MADRS Concentration Difficulties improvement ([2]; IDR n=8 sum, Day 1 vs baseline): 29
- MADRS Inability to Feel improvement ([2]; IDR n=8 sum, Day 1 vs baseline): 34
- MADRS Inner Tension improvement ([2]; IDR n=8 sum, Day 1 vs baseline): 20
- MADRS Lassitude improvement ([2]; IDR n=8 sum, Day 1 vs baseline): 22
- MADRS Pessimistic Thoughts improvement ([2]; IDR n=8 sum, Day 1 vs baseline): 24
- MADRS Reduced Sleep improvement ([2]; IDR n=8 sum, Day 1 vs baseline): 13
- MADRS Reduced Sleep percentage improvement ([2]; IDR n=8 sum, Day 1 vs baseline): 52.00%
- MADRS Suicidal Thoughts improvement ([2]; IDR n=8 sum, Day 1 vs baseline): 10
- MADRS Suicidal Thoughts score ([2]; IDR n=8 sum, Day 7, baseline 11): 3
- MADRS Reduced Sleep score ([2]; IDR n=8 sum, Day 7, baseline 25): 9
- MADRS Inner Tension score ([2]; IDR n=8 sum, Day 7, baseline 26): 12
- MADRS Lassitude score ([2]; IDR n=8 sum, Day 7, baseline 27): 3
- MADRS Pessimistic Thoughts score ([2]; IDR n=8 sum, Day 7, baseline 28): 3
- MADRS Concentration Difficulties score ([2]; IDR n=8 sum, Day 7, baseline 30): 9
- MADRS Inability to Feel score ([2]; IDR n=8 sum, Day 7, baseline 36): 6
- MADRS Concentration Difficulties improvement ([2]; IDR n=8 sum, Day 7 vs baseline): 21
- MADRS Inability to Feel improvement ([2]; IDR n=8 sum, Day 7 vs baseline): 30
- MADRS Inner Tension improvement ([2]; IDR n=8 sum, Day 7 vs baseline): 14
- MADRS Lassitude improvement ([2]; IDR n=8 sum, Day 7 vs baseline): 24
- MADRS Pessimistic Thoughts improvement ([2]; IDR n=8 sum, Day 7 vs baseline): 25
- MADRS Reduced Sleep improvement ([2]; IDR n=8 sum, Day 7 vs baseline): 16
- MADRS Reduced Sleep percentage improvement ([2]; IDR n=8 sum, Day 7 vs baseline): 64.00%
- MADRS Suicidal Thoughts improvement ([2]; IDR n=8 sum, Day 7 vs baseline): 8
- mean MADRS change from baseline at day seven ([2]; Part A, 12 mg): −21.0
- mean MADRS change from baseline at day seven, percent ([2]; Part A, 12 mg): −65%
- patients with MADRS remission (total score ≤10) on day seven ([2]; Part A, 12 mg, two of four patients): 50%
- mean MADRS change from baseline at day seven ([2]; Part A, 18 mg): −12.8
- mean MADRS change from baseline at day seven, percent ([2]; Part A, 18 mg): −41%
- further patients with MADRS clinical response on day seven ([2]; Part A, 18 mg, one further patient of four): 25%
- patients with MADRS remission (total score ≤10) on day seven ([2]; Part A, 18 mg, one of four patients): 25%
- patients with MADRS remission (total score ≤10) on day seven ([2]; Part B, IDR, seven of eight patients, p<0.0001): 87.5%
- induction of mutation [3]: did not induce mutation
- MADRS response (at least 50% improvement) and MADRS remission (total score ≤10) criteria ([4]; PPD n=1): fulfilled standard criteria
- time to clinical response after administration ([4]; PPD n=1): ≤ 2 h
- time to clinical remission after administration ([4]; PPD n=1, IDR): ≤ 2 h
- Total MADRS improvement ([4]; PPD n=1, 2 hr vs baseline): 24
- Total MADRS score ([4]; PPD n=1, 2 hr): 5
- MADRS Lassitude score ([4]; PPD n=1, Day 1, baseline 3): 0
- Total MADRS score ([4]; PPD n=1, Day 1): 0
- Total MADRS improvement ([4]; PPD n=1, Day 1 vs baseline): 29
- Total MADRS score ([4]; PPD n=1, Day 7): 1
- Total MADRS improvement ([4]; PPD n=1, Day 7 vs baseline): 28
- durability of clinical response ([4]; PPD n=1, single treatment day): sustained over the 7-day follow-up period
- detectability in plasma ([5]; 3 hours after inhalation, whole dose range): no longer detectable
- pharmacokinetic measurements under uptitration dosing schemes ([5]; compared with single doses): Substantially similar results were obtained
- accumulation upon repeated administration ([5]; repeat within 1 to 4 hours): No accumulation is observed
- induction of mutation [6]: did not induce mutation
